# Measurements from patent US20200370045A1, “METHOD OF TREATING TYPE II DIABETES AND OBESITY AND METHOD OF SCREENING A MEDICAMENT FOR THE SAME” (Tsinghua University, priority 2017, published 2020).
# Columns and labels:
# Assay type in all cases: in vivo
# microRNA-708 [1] = assay: Obesity level of HFD-fed obese mice treated with antisense nucleic acid of microRNA-708; conditions: 2-month old obese mice fed with HFD for two months; subcutaneously injected at 10 D/g weekly for four weeks; FIG. 13
# From the text: (§1) A designed RNA sequence ([…] (SEQ ID NO: 2)), reverse complementary to microRNA-708, was subcutaneously injected at 10 D/g to 2-month old obese mice (fed with HFD for two months) weekly for four weeks.
# microRNA-708 [2] = assay: Glucose tolerance test (GTT) in obese mice treated with antisense nucleic acid of microRNA-708; conditions: obese mice treated with antisense nucleic acids; FIG. 14
# Experimental: (§2) As obesity is closely related to type II diabetes, the present inventors also examined the role of microRNA-708 in insulin sensitivity, where insulin tolerance test (ITT) and glucose tolerance test (GTT) were adopted. ITTs of the microRNA-708 knockout mice were assayed 0, 15, 30, 60, and 90 min after an intraperitoneal injection of insulin (diluted as 0.5 U/ml in saline and dosed at 0.5-1.2 U insulin per kg body mass, e.g., 0.5 U insulin per kg body mass, […]) following a 4 h fast. GTTs of the microRNA-708 knockout mice were assayed 0, 15, 30, 60, and 90 min after an intraperitoneal injection of glucose (diluted as 20% glucose solution in saline and dosed at 0.5-2 g glucose per kg body mass, e.g., 1 g glucose per kg body mass) following overnight fast.
# as §1
# microRNA-708 [3] = assay: Insulin tolerance test (ITT) in obese mice treated with antisense nucleic acid of microRNA-708; conditions: 2-month old obese mice fed with HFD for two months; subcutaneously injected at 10 D/g weekly for four weeks; FIG. 15
# Experimental: as §2, §1
sequence,measurement,setting,value
CCCAGCUAGACUUGUAAGUCCUU [SEQ ID NO: 2],obesity levels,microRNA-708 [1],declined distinctly
same,glucose tolerance,microRNA-708 [2],obvious relieved
same,insulin tolerance symptoms (insulin resistance),microRNA-708 [3],significantly alleviated
